Results as given in article PMC9986241 (Signal Transduction and Targeted Therapy, 2023).
Read-outs that look alike come from different tables or passages of the source.

Legend:
A375 (BRAF V600E) = assay: Cell proliferation MTT assay; assay type: cell-based; conditions: Homo sapiens
Method: (§1) The synergism and antagonism (CI value) were determined and analyzed using CompuSyn 1.0.
(§2) For cytotoxicity test, normal NHDF (5000 cells/well) and NHEM cell line (3000 cells/well) were planted into 96-well plates. For cell proliferation assay, A375 (1500 cells/well), SK-MEL-28 (3000 cells/well), SK-MEL-2 (4000 cells/well), and HCT116 (1500 cells/well) were planted into 96-well plates, determined concentration of drug was added after culture for 24 h. The viability of the cells was detected within 72 h using MTT solution (5 mg/mL). The absorbance at 570/490 nm was quantified by the use of the microplate reader.

HCT116 (KRAS mut) = assay: Cell proliferation MTT assay; assay type: cell-based; conditions: Homo sapiens, HCT-116; MTT, 72 h; read-out: IC50
Method: as §1, §2

SK-MEL-2 (NRAS mut) = assay: Cell proliferation MTT assay; assay type: cell-based; conditions: Homo sapiens, SK-MEL-2; MTT, 72 h; read-out: IC50
Method: as §1, §2

SK-MEL-28 (BRAF V600E) = assay: Cell proliferation MTT assay; assay type: cell-based; conditions: Homo sapiens
Method: as §1, §2

A375 (BRAF V600E) CDX = assay: Cell-derived xenograft (CDX); conditions: 50 mg/kg, oral gavage, vs vehicle-treated group
Method: (§3) Tumor volume (mm^3) = (length × width × height) × 0.52. SK-MEL-2: n = 10; A375 and SK-MEL-28: n = 8; HCT116: n = 9. b The photographs show tumors from CDX mice treated with vehicle, erianin, vemurafenib, or the combination. c The weight of the tumors was quantified and expressed as the treatment groups compared with the vehicle-treated group. […] The tissue lysates were prepared from CDX tumor tissues in each treatment group. […] Each point represents the IOD values of four quantified data from one mouse. Scale bars: 50 μm.
(§4) The animal experiments were performed according to the guidelines approved by the Zhengzhou University Institutional Animal Care and Use Committee. A375 cell line (1 × 10^7 cell/mouse), SK-MEL-28 cell line (5 × 10^6 cell/mouse), SK-MEL-2 cell (5 × 10^6 cell/mouse), and HCT116 cell line (1 × 10^7 cell/mouse) were injected subcutaneously into the NOD-SCID mice (Vital River Labs, Beijing, China). For the melanoma PDX mice model, the tumor was taken after surgical operation and implanted into the NPG (Vital River Labs, Beijing, China) mice under a sterile environment. For the colorectal cancer PDX mice model, NOD-SCID mice were selected as carriers for tumor growth. The measurement of tumor size was performed twice a week using vernier caliper and the calculation of tumor volume was done according to tumor volume (mm^3) = length × width × height × 0.52.

[1] = tested on: SK-MEL-28 (BRAF V600E) CDX; assay: Cell-derived xenograft (CDX); conditions: 50 mg/kg, oral gavage, vs vehicle-treated group
Method: as §3, §4

HCT116 (KRAS mut) CDX = assay: Cell-derived xenograft (CDX); assay type: in vivo, NOD-SCID mice; conditions: 50 mg/kg, oral gavage
Method: as §3, §4

SK-MEL-2 (NRAS mut) CDX = assay: Cell-derived xenograft (CDX); assay type: in vivo, NOD-SCID mice; conditions: 50 mg/kg, oral gavage
Method: as §3, §4

melanoma PDX = assay: Patient-derived xenograft (PDX); assay type: in vivo; conditions: oral gavage; erianin, vemurafenib 50 mg/kg once a day; cobimetinib 5 mg/kg twice a week; within 78 days
Method: Fig. 7 Erianin exerts antitumor efficacy in melanoma and colorectal cancer in vivo. a Tumor pharmacodynamic assay was performed in tumor-bearing NPG mice (tumor has been passaged from melanoma patient to mice for three generations). The photographs show tumors from melanoma PDX mice treated with vehicle or drugs. b The effect of erianin on the volume of PDX tumors over time (within 78 days) was plotted. Vehicle, erianin (50 mg/kg, once a day), vemurafenib (50 mg/kg, once a day), erianin and vemurafenib combination therapy, cobimetinib (5 mg/kg, twice a week) or vemurafenib and cobimetinib combination therapy (once a day and twice a week, respectively) were administered by oral gavage, n = 8 in each group. Tumor volume was measured once a week. […] Scale bars: 20 μm. One-way ANOVA test. ***p < 0.001. e Antitumor efficacy of erianin with or without immunity using B16F10 cell xenograft in C57BL-6J mouse. f, g Trend of tumor volume over time and tumor weight was measured after treatment on the last day of the study.

[2] = tested on: MAPK signaling pathway (phospho-CRAF, phospho-MEK1/2, phospho-ERK1/2); assay: Western blotting of MAPK signaling pathway in cells
[3] = A-375, MTT, 72 h, read-out: IC50
[4] = SK-MEL-28, MTT, 72 h, read-out: IC50

IC50 (A375 (BRAF V600E); [3])	IC50 (SK-MEL-28 (BRAF V600E); [4])	SMILES	IC50 (HCT116 (KRAS mut))	IC50 (SK-MEL-2 (NRAS mut))	further results
60.9 ± 14.4 nM	129 ± 28.3 nM	Cn1cnc2c(F)c(Nc3ccc(Br)cc3F)c(C(=O)NOCCO)cc21 [Binimetinib]	509 ± 145 nM	240 ± 81.2 nM	
9.5 ± 3.9 nM	6.5 ± 1.2 nM	COC(=O)N[C@@H](C)CNc1nccc(-c2cn(C(C)C)nc2-c2cc(Cl)cc(NS(C)(=O)=O)c2F)n1 [Encorafenib]	> 2000 nM	> 9000 nM	
		CC(C)(C)c1nc(-c2cccc(NS(=O)(=O)c3c(F)cccc3F)c2F)c(-c2ccnc(N)n2)s1 [Dabrafenib]	> 18000 nM	> 60000 nM	IC50 (A375 (BRAF V600E); A-375, 72 h): 36.7 ± 9.7 nM; IC50 (SK-MEL-28 (BRAF V600E); SK-MEL-28, 72 h): 41 ± 15.5 nM
2.2 ± 0.8 nM	1.9 ± 0.2 nM	CC(=O)Nc1cccc(-n2c(=O)n(C3CC3)c(=O)c3c(Nc4ccc(I)cc4F)n(C)c(=O)c(C)c32)c1 [Trametinib]	22.1 ± 9.2 nM	50.6 ± 1.7 nM	
		CNc1ncc2cc(-c3cc(NC(=O)NCCC(C)(C)C)c(F)cc3C)c(C)nc2n1 [LY3009120]			kinase activity of CRAF (phosphorylation of CRAF and MEK1/2) ([2]; low dose, 24 h): induced kinase activity of CRAF at a low dose

SMILES	IC50 (A375 (BRAF V600E); [3])	IC50 (SK-MEL-28 (BRAF V600E); [4])	IC50 (HCT116 (KRAS mut))	IC50 (SK-MEL-2 (NRAS mut))	further results
CCCS(=O)(=O)Nc1ccc(F)c(C(=O)c2c[nH]c3ncc(-c4ccc(Cl)cc4)cc23)c1F [Vemurafenib, reference compound]	314 ± 73.7 nM	344 ± 36.4 nM	> 20000 nM	> 40000 nM	tumor volume (A375 (BRAF V600E) CDX): significant decrease; tumor volume [1]: significant decrease; tumor volume and tumor weight (HCT116 (KRAS mut) CDX): poor effect; tumor volume and tumor weight (SK-MEL-2 (NRAS mut) CDX): poor effect; tumor volume (melanoma PDX): did not suppress tumor volume significantly; activation of MAPK signaling pathway (CRAF, MEK1/2, ERK1/2) ([2]; SK-MEL-2 and HCT116, 24 h): induced the paradoxical activation of MAPK signaling pathway
O=C(c1ccc(F)c(F)c1Nc1ccc(I)cc1F)N1CC(O)([C@@H]2CCCCN2)C1 [Cobimetinib]	3.2 ± 1.3 nM	2.6 ± 0.4 nM	51.3 ± 8.9 nM	119 ± 38.2 nM	tumor volume (melanoma PDX): no differences between erianin and cobimetinib; phosphorylation of MEK1/2 ([2]; SK-MEL-2 and HCT116, 24 h): increased phosphorylation of MEK1/2; phosphorylation of ERK1/2 ([2]; both BRAF V600E and RAS mutant cells, 24 h): inhibits phosphorylation of ERK1/2 effectively
